# Experimental data as given in paper PMC12512182, “Unveiling the Structural and Biochemical Characteristics of an Acidophilic β‑Mannanase from Soybean (Glycine max)” (Journal of Agricultural and Food Chemistry, 2025).
# Target: T1, GmMAN19-1 (Glycine max, UniProt I1NBK5, Q294W)
# T1 construct: gene LOC100787923; mature form, signal peptide 1-27 removed; pGEX-4T-1 (EcoRI/XhoI) N-terminal GST fusion from E. coli BL21(DE3), GST cut with thrombin leaving N-terminal Gly-Ser; ~40 kDa; 371 residues in the crystal structure
# T1 sequence (I1NBK5 28-410 Q294W): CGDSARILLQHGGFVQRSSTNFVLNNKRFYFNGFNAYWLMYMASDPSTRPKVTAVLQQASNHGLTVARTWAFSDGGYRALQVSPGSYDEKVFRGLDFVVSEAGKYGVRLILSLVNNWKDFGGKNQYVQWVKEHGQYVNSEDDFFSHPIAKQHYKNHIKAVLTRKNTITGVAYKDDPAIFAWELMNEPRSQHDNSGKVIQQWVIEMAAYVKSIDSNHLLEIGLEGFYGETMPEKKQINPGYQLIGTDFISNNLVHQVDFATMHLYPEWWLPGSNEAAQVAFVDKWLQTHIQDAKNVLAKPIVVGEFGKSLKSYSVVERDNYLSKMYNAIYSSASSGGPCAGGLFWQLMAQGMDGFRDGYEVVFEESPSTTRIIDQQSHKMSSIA
# Assay: TLC product profile of M5 conversion
# Assay type: biochemical
# Conditions: 1 μM enzyme, 25 mM M5, pH 4.6, 40 °C (optimal assay conditions); hydrolysis and transglycosylation
smiles,measurement,value
"OC[C@H]1O[C@@H](O[C@H]2[C@H](O)[C@H](O)[C@H](O[C@H]3[C@H](O)[C@H](O)[C@H](O[C@H]4[C@H](O)[C@H](O)[C@H](O[C@H]5[C@H](O)[C@H](O)C(O)O[C@@H]5CO)O[C@@H]4CO)O[C@@H]3CO)O[C@@H]2CO)[C@@H](O)[C@@H](O)[C@@H]1O (stereo partly shown) [M5, mannopentaose]",TLC product profile of M5 conversion,"the Q267W mutant displayed an altered transglycosylation profile, generating shorter-chain oligosaccharides"
